pKi: −log10 of the molar value.
Tests used:
[1] = molecular target: T1, Alpha-2A adrenergic receptor (Homo sapiens, UniProt P08913)
T1 sequence (P08913 whole entry): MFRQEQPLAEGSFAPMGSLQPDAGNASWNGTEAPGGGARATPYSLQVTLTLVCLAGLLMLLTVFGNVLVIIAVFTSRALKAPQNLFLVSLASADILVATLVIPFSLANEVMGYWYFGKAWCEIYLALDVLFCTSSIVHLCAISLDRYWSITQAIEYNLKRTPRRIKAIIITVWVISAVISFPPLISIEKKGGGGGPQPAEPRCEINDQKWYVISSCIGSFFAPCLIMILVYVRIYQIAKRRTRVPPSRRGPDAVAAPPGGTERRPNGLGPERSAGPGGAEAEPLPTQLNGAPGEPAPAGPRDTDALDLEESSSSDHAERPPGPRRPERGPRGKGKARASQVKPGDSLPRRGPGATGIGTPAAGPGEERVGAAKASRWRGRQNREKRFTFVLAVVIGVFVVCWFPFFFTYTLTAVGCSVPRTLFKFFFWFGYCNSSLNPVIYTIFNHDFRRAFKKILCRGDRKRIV
Description: Inhibition of [3H]rauwolscine binding to Alpha-2A adrenergic receptor

[2] = molecular target: T2, 5-hydroxytryptamine receptor 2C (Homo sapiens, UniProt P28335)
T2 sequence (P28335 whole entry): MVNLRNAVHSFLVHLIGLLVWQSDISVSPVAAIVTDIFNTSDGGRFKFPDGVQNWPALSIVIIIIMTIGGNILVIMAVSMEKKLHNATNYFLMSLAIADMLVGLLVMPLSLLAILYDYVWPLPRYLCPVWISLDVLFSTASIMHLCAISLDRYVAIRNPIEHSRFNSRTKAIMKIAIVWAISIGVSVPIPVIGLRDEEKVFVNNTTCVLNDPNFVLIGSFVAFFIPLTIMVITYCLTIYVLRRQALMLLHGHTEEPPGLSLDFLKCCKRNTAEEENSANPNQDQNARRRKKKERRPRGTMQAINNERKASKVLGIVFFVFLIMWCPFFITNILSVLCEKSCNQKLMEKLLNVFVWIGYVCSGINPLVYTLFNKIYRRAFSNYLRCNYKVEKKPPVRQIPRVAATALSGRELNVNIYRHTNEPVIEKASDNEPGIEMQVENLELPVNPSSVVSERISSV
Description: Inhibition of [3H]mesulergine binding to human 5-hydroxytryptamine 2C receptor

[3] = molecular target: T3, Adrenergic receptor alpha-1 (Rattus norvegicus, UniProt P15823+P23944+P43140)
T3 sequence (P15823 whole entry): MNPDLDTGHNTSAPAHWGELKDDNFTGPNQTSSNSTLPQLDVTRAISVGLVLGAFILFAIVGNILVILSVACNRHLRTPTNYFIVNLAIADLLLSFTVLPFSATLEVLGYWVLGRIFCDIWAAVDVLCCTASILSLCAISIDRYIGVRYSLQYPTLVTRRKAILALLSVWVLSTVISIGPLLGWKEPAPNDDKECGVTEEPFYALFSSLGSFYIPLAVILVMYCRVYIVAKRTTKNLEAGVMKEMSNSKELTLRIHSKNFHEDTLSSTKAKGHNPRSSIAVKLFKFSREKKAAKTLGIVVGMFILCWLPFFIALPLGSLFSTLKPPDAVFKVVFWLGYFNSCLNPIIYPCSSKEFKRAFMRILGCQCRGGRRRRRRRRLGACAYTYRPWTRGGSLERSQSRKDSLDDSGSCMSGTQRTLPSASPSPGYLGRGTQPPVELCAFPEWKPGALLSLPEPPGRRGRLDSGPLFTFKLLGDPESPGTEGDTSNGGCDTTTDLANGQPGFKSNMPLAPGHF
T3 sequence (P23944 whole entry): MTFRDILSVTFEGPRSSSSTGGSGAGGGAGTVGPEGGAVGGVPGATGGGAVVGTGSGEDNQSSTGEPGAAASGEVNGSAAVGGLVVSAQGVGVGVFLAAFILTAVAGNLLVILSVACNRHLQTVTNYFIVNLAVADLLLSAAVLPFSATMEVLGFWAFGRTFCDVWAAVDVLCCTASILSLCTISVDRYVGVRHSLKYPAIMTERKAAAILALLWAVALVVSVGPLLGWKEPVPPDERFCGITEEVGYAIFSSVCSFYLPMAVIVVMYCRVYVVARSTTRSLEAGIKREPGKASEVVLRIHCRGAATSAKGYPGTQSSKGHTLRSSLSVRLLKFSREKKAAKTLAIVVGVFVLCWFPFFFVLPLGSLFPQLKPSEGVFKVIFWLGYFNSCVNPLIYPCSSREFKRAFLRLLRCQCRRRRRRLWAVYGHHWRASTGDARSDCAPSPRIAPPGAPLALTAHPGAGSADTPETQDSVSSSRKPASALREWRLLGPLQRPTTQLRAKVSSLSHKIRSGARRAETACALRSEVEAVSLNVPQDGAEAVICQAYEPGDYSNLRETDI
T3 sequence (P43140 whole entry): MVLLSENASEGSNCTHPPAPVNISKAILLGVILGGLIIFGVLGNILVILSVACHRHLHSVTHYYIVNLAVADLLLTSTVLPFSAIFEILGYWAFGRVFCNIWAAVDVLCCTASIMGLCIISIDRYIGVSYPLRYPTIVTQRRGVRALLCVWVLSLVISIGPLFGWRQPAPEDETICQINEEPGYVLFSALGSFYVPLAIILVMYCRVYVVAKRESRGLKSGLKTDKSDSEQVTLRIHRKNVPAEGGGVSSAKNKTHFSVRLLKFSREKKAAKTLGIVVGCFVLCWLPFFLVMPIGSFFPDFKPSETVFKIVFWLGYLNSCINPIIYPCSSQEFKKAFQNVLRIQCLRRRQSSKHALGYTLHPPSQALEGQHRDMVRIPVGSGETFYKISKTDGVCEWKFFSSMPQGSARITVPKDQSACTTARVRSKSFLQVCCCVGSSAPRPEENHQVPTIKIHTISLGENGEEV
Description: Inhibition of [3H]prazosin binding to rat Alpha-1 adrenergic receptor

[4] = molecular target: T4, Alpha-2C adrenergic receptor (Homo sapiens, UniProt P18825); test: Inhibition of [3H]rauwolscine binding to Alpha-2C adrenergic receptor
T4 sequence (P18825 whole entry): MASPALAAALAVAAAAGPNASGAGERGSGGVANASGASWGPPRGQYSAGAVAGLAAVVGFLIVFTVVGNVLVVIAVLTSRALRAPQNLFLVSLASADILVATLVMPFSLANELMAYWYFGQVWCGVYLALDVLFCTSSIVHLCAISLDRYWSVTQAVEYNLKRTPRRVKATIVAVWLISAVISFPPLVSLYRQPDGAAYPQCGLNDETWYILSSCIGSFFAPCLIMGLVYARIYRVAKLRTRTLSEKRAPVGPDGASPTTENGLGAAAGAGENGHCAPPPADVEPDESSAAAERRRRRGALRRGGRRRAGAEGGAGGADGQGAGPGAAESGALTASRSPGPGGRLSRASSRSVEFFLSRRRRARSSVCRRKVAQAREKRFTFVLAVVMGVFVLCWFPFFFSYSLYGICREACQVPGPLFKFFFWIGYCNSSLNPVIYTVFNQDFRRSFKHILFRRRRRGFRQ

[5] = molecular target: Norepinephrine transporter (Rattus norvegicus, UniProt Q9WTR4); test: Inhibition of [3H]nisoxetine binding to rat Norepinephrine transporter
D(1A) dopamine receptor [6] = molecular target: D(1A) dopamine receptor (Homo sapiens, UniProt P21728); test: Inhibition of [3H]SCH-23390 binding to human Dopamine receptor D1
[7] = molecular target: 5-hydroxytryptamine receptor 7 (Homo sapiens, UniProt P34969)
Description: Inhibition of [3H]5-HT binding to human 5-hydroxytryptamine 7 receptor

Histamine H1 receptor = Histamine H1 receptor (Homo sapiens, UniProt P35367)
Description: Inhibition of [3H]pyrilamine binding to human Histamine H1 receptor

D(3) dopamine receptor = D(3) dopamine receptor (Homo sapiens, UniProt P35462)
Description: Inhibition of [125I]iodosulpiride binding to human Dopamine receptor D3

[8] = molecular target: 5-hydroxytryptamine receptor 2A (Homo sapiens, UniProt P28223)
Description: Inhibition of [125I]R91150 binding to human 5-hydroxytryptamine 2A receptor

Mus musculus = test: In vivo effective dose for reversal of RO-4-1284 induced hypothermia in mouse; type: functional
Rattus norvegicus [9] = species: Rattus norvegicus; test: Effective dose for antagonistic activity against m-chlorophenyl-piperazine induced anxiety in rats; type: functional
Rattus norvegicus [10] = test: In vivo effective dose to inhibit tryptamine-induced bilateral convulsions in rats; type: functional
Rattus norvegicus [11] = test: In vivo effective dose for reversal of tryptamine-induced cyanosis in rats; type: functional
Rattus norvegicus [12] = test: In vivo effective dose for reversal of tryptamine-induced backward locomotion in rats; type: functional
Rattus norvegicus [13] = test: In vivo effective dose to inhibit apomorphine induced agitation in rats upon subcutaneous administration; type: functional; details: sc
D(1A) dopamine receptor [14] = molecular target: D(1A) dopamine receptor (Rattus norvegicus, UniProt P18901)
D(1A) dopamine receptor (Rattus norvegicus, UniProt P18901), sequence (P18901 whole entry): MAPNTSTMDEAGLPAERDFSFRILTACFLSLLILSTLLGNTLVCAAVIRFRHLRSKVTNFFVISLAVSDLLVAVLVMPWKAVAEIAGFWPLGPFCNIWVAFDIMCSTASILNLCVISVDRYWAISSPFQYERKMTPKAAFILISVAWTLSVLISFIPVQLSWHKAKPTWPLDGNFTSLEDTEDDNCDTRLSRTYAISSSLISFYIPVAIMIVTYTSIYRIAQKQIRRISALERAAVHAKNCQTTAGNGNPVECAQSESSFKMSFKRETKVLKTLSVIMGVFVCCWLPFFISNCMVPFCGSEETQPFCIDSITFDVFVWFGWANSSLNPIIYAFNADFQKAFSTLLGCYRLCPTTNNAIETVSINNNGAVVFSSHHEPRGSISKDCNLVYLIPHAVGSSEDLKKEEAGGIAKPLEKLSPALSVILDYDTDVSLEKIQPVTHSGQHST
Description: Inhibition of [3H]SCH-23390 binding to rat Dopamine receptor D1

D(1A) dopamine receptor (Homo sapiens, UniProt P21728), sequence (P21728 whole entry): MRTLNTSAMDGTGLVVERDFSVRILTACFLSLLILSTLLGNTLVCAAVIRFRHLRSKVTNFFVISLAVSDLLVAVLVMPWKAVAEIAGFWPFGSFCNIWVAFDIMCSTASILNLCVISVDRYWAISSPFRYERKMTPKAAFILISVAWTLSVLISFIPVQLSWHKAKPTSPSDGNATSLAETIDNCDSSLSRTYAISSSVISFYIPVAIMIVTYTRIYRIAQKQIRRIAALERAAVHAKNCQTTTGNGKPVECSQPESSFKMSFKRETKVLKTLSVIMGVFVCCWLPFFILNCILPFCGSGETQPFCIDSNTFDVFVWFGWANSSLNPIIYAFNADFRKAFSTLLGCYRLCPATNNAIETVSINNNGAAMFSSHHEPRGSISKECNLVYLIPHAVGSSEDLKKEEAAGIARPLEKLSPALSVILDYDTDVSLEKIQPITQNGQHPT
Histamine H1 receptor, sequence (P35367 whole entry): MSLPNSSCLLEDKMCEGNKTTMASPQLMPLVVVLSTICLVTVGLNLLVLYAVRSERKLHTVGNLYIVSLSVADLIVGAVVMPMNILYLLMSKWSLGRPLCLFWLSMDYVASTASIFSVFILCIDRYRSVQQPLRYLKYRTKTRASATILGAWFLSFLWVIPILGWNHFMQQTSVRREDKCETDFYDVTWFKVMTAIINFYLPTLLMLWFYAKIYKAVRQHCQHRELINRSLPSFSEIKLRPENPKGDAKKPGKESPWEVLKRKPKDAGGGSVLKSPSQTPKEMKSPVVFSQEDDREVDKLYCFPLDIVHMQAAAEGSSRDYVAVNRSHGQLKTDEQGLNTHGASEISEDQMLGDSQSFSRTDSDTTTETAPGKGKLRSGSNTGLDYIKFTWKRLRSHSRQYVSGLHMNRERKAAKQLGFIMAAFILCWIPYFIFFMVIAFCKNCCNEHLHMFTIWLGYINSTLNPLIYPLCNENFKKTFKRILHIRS
5-hydroxytryptamine receptor 7, sequence (P34969 whole entry): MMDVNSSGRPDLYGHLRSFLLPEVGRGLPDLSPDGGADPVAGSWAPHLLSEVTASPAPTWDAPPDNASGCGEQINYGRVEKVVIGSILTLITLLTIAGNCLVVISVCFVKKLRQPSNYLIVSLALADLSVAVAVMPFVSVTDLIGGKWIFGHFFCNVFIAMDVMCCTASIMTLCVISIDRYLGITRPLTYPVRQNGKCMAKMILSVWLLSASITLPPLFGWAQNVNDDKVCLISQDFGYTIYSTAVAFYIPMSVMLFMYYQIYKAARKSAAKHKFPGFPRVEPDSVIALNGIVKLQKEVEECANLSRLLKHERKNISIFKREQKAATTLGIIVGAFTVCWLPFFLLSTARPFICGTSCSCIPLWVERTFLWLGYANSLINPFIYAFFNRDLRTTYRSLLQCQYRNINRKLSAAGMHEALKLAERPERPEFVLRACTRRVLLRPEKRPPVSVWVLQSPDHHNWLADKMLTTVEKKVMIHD
D(3) dopamine receptor, sequence (P35462 whole entry): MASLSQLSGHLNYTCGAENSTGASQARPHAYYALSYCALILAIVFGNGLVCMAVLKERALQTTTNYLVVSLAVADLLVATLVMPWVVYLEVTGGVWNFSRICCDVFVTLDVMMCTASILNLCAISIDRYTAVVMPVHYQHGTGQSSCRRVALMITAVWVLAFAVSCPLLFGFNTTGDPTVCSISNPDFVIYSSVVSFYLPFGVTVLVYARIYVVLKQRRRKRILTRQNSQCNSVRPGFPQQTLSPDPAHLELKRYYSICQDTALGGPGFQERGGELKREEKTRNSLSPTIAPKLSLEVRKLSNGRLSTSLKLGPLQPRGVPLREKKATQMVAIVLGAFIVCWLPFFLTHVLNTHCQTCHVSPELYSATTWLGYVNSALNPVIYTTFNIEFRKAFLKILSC
Norepinephrine transporter, sequence (Q9WTR4 whole entry): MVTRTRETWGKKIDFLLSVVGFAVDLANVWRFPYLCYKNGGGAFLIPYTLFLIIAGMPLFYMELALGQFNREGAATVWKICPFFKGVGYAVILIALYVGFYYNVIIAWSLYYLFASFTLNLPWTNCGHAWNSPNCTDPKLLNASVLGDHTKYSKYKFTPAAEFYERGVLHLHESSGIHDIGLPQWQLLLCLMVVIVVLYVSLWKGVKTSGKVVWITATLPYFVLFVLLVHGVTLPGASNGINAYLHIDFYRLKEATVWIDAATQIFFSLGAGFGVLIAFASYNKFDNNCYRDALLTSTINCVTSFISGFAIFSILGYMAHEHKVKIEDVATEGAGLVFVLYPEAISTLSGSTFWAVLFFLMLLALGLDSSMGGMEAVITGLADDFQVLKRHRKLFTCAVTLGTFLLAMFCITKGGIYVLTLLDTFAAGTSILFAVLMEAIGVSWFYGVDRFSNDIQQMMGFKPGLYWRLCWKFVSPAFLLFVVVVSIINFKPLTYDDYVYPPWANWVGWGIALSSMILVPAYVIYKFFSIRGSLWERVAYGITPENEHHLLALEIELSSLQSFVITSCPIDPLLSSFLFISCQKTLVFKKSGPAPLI
5-hydroxytryptamine receptor 2A, sequence (P28223 whole entry): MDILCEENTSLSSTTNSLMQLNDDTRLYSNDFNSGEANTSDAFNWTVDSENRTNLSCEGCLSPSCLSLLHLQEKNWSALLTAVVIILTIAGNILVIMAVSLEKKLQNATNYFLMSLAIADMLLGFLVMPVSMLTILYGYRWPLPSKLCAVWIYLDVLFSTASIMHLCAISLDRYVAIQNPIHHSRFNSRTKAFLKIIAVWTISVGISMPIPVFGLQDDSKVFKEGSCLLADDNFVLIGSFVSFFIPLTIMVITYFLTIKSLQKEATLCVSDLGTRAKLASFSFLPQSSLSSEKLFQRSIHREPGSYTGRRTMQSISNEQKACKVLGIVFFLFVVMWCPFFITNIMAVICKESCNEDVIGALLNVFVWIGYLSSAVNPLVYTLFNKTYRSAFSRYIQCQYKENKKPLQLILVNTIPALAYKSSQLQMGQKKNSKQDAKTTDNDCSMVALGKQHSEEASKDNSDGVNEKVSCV

| pKi [1] | pKi [2] | Ki [3] | pKi [4] | pKi [5] | pKi (D(1A) dopamine receptor [6]) | pKi [7] | pKi (Histamine H1 receptor) | pKi (D(3) dopamine receptor) | pKi [8] | SMILES | ED50 (Mus musculus) | ED50 (Rattus norvegicus [9]) | ED50 (Rattus norvegicus [10]) | ED50 (Rattus norvegicus [11]) | ED50 (Rattus norvegicus [12]) | ED50 (Rattus norvegicus [13]) | pKi (D(1A) dopamine receptor [14]) |
| --- | --- | --- | --- | --- | --- | --- | --- | --- | --- | --- | --- | --- | --- | --- | --- | --- | --- |
| 6.39 | 8.05 | 234 nM | 6.13 | 6.42 | 6.81 | 7.46 | 7.38 | 7.02 |  | CN(C)C[C@H]1CC2c3ccccc3Oc3ccc(Br)cc3[C@H]2O1 (stereo partly drawn) |  |  |  |  |  |  |  |
| 6.57 | 8.37 | 71 nM | 6.70 | 8.44 |  | 7.10 | 8.12 |  | < 5.26 | CN(C)C[C@H]1CC2c3ccccc3Oc3ccc(F)cc3[C@H]2O1 (stereo partly drawn) |  |  |  |  |  |  |  |
| 6.60 | 8.12 | 338 nM | 6.66 | 7.70 |  | 7.24 | 7.48 |  | < 5.26 | CN(C)C[C@@H]1CC2c3ccccc3Oc3ccc(F)cc3[C@H]2O1 (stereo partly drawn) |  |  |  |  |  |  |  |
|  | 7.77 |  |  | < 5.26 |  |  |  |  |  | CN(C)C[C@@H]1CC2c3ccccc3Oc3ccc(Br)cc3[C@H]2O1 (stereo partly drawn) |  |  |  |  |  |  |  |
| 6.90 |  | 108 nM | 7.16 | 8.11 |  | 7.89 | 9.37 | 7.08 |  | CN(C)C[C@H]1C[C@@H]2c3ccccc3Cc3ccccc3[C@H]2O1 | 0.2 mg/kg | 0.18 mg/kg | 0.02 mg/kg | 0.02 mg/kg | 1.2 mg/kg | 2 mg/kg |  |
| 7.14 | 9.19 | 32 nM | 7.11 | 8.57 | 7.72 | 7.47 | 8.92 | 8.07 |  | CN(C)C[C@@H]1CC2c3ccccc3Sc3ccc(F)cc3[C@H]2O1 (stereo partly drawn) |  |  |  |  |  |  |  |
| 6.52 | 8.43 | 228 nM | 6.17 | 7.06 | 6.60 | 7.04 | 7.85 | 7.35 |  | CN(C)C[C@@H]1CC2c3ccccc3Oc3ccc(Cl)cc3[C@H]2O1 (stereo partly drawn) |  |  |  |  |  |  |  |
| 6.81 | 8.82 | 41 nM | 7.03 | 7.40 | 7.66 | 8.19 | 8.85 | 7.82 |  | CN(C)C[C@H]1C[C@@H]2c3ccccc3Sc3ccc(F)cc3[C@H]2O1 | 2 mg/kg | > 2.5 mg/kg | 0.08 mg/kg | 0.05 mg/kg | > 2.5 mg/kg | 1.2 mg/kg |  |
| 8.00 | 8.62 | 35 nM | 7.59 | 8.03 | 7.08 | 6.60 | 8.37 | 6.60 |  | CN(C)C[C@H]1CC2c3ccccc3Oc3ccc(Cl)cc3[C@H]2O1 (stereo partly drawn) |  |  |  |  |  |  |  |
| 7.18 | > 9.38 | 8.8 nM | 7.23 | 8.80 | 8.28 | 8.18 | 9.28 | 8.96 |  | CN(C)C[C@H]1CC2c3ccccc3Sc3ccc(F)cc3[C@H]2O1 (stereo in doubt; 8d) |  |  |  |  |  |  |  |
| 7.10 | 9.68 | 7.5 nM | 7.14 | 8.70 | 8.52 | 8.21 | 9.22 | 7.72 |  | CN(C)C[C@H]1CC2c3ccccc3Sc3ccc(F)cc3[C@H]2O1 (stereo in doubt; (-)-8d) | 0.025 mg/kg | > 0.63 mg/kg | 0.0079 mg/kg | 0.013 mg/kg | 0.32 mg/kg | 0.13 mg/kg |  |
|  |  |  |  |  |  |  |  |  |  | CN1CCN(C2=Nc3cc(Cl)ccc3Nc3ccccc32)CC1 [CLOZAPINE] | > 80 mg/kg | > 2.5 mg/kg | 0.22 mg/kg | 0.26 mg/kg |  | 8.2 mg/kg |  |

| SMILES | pKi [1] | pKi [2] | Ki [3] | pKi [4] | pKi [5] | pKi (D(1A) dopamine receptor [6]) | pKi [7] | pKi (Histamine H1 receptor) | pKi (D(3) dopamine receptor) | pKi [8] | ED50 (Mus musculus) | ED50 (Rattus norvegicus [9]) | ED50 (Rattus norvegicus [10]) | ED50 (Rattus norvegicus [11]) | ED50 (Rattus norvegicus [12]) | ED50 (Rattus norvegicus [13]) | pKi (D(1A) dopamine receptor [14]) |
| --- | --- | --- | --- | --- | --- | --- | --- | --- | --- | --- | --- | --- | --- | --- | --- | --- | --- |
| CN1CCN2c3ccccc3Cc3ccccc3C2C1 (stereo not drawn) [MIANSERIN] |  |  |  | 8.42 | 7.00 |  |  |  |  |  | > 40 mg/kg | 1.26 mg/kg | 0.24 mg/kg | 0.18 mg/kg | 0.55 mg/kg | > 10 mg/kg |  |
| CN1CCN2c3ncccc3Cc3ccccc3C2C1 (stereo not drawn) [MIRTAZAPINE] |  | 7.41 | 608 nM | 7.74 | 5.79 |  |  |  |  |  | > 40 mg/kg | 0.1 mg/kg | 0.32 mg/kg | 0.8 mg/kg | 0.5 mg/kg | > 10 mg/kg | 5.38 |
| Cc1cc2c(s1)Nc1ccccc1N=C2N1CCN(C)CC1 [OLANZAPINE] |  |  |  |  | 6.02 |  |  |  |  |  | > 10 mg/kg | 0.44 mg/kg | 0.086 mg/kg | 0.032 mg/kg |  | 0.26 mg/kg |  |
| Cc1nc2n(c(=O)c1CCN1CCC(c3noc4cc(F)ccc34)CC1)CCCC2 [RISPERIDONE] |  |  |  |  | < 5.26 |  |  |  |  |  | > 10 mg/kg | > 0.31 mg/kg | 0.037 mg/kg | 0.002 mg/kg | > 10 mg/kg | 0.17 mg/kg |  |

Source: ChEMBL document CHEMBL1142715, “Discovery of new tetracyclic tetrahydrofuran derivatives as potential broad-spectrum psychotropic agents” (J Med Chem, 2005)
